For this test, the target named is T1, human Nav1.8 (hNav1.8) ion channel (Homo sapiens, UniProt Q9Y5Y9).
T1 construct: expressed in transfected cells
Put plainly: Nav1.8 inhibition, estimated IC50 (Nav1.8 fluorescence, PatchXpress and/or IonFlux HT automated patch clamp assay). It is filed as cell-based. Conditions: HEK293 cells stably expressing hNav1.8; determined using one or more of the described methods; read-out: Activity range (estimated IC50). The protocol: The ability of pyridine carboxamide derivatives exemplified above to inhibit the Nav1.8 channel was determined using one or more of the methods described below.
HEK Nav1.8 β1/β2 Stably Expressing Cell Line
A HEK293 cell line stably expressing the human Nav1.8 (hNav1.8) ion channel with β1/β2 subunits was constructed. The cell line is suitable for IC50 determination in fluorescence and electrophysiological based assays. It is also suitable to conduct mechanism of action pharmacology studies in electrophysiological assays. HEK293 Nav1.8 cells are grown as adherent monolayers in DMEM/high glucose media, 10% fetal bovine serum, Na pyruvate (2 mM), Hepes (10 mM) with selection agents G418 (400 mg/L) and puromycin (0.5 mg/L) at 37 degrees C., 10% CO2.
Nav1.8 Fluorescence Inhibition Assay
Compounds were made up to or supplied as a 10-mM stock solution using DMSO as the vehicle. Concentration-response curves were generated using a Matrix multichannel pipettor. Compound source plates were made by diluting 10 mM compound stocks to create 500 μM (100×) solutions in DMSO in 96-well v-bottom plates. Compounds were then serially diluted in 100% DMSO to generate a 5 point, 4-fold dilution scheme dose response curve. 2 μL of the 100× dose response curves were then added to preincubation and stimulation assay plates. 100 μL of pre-incubation buffer and 200 μl of stimulation buffer was then added to the plates resulting in a final assay test concentration range of 5 μM to 0.02 μM with a final DMSO concentration of 1%.
On the day of assay, plates were washed to remove cell culture media using 2K EBSS buffer (135 mM NaCl, 2 mM KCl, 5 mM Glucose, 2 mM CaCl2, 1 mM MgCl2, 10 mM HEPES, pH 7.4). The Na-sensitive fluorescent dye, Asante Natrium Green-2 (ANG-2) was incubated for 60 min to allow equilibration and then washed with 2K EBSS. Plates were then transferred to a fluorescence plate reader (FLIPR™, Molecular Devices) for fluorescence measurement using an excitation wavelength of 490 nm and an emission wavelength of 565 nm. Compounds were pre-incubated for 5 min at final test concentration in the presence of ouabain (30 μM) to inhibit Na+ efflux through Na+/K+ exchanger. Following the pre-incubation phase, hNav1.8 channels were stimulated with 10 μM of the pyrethroid deltamethrin to prevent channel inactivation. The assay was run for 15 minutes with vehicle and 30 μM tetracaine serving as negative and positive controls, respectively. The peak change in fluorescence relative to negative and positive control wells was calculated and fit with a logistic equation to determine IC50.
PatchXpress Nav1.8 Inhibition Assay
HEK-Nav1.8 β1/β2 cells were recorded in whole cell patch-clamp using the PatchXpress automated patch clamp platforms (Molecular Devices). Cell suspensions were obtained by trypsinization of adherent monolayers, followed by gentle rocking for minimally 30 min. Compounds were prepared from 10 mM DMSO stocks.
Nav1.8 channel variants were evaluated using Protocol 1 in which cells were initially voltage clamped at a holding potential of −100 mV to maintain Nav1.8 in a closed resting state. After current amplitude becomes stable, the mid-point voltage of steady state inactivation was determined for each cell using a series of 5 sec conditioning steps to increasingly depolarized voltages (−100 to 0 mV) The holding potential was then reset to a voltage that produces ˜50% inactivation (Vhalf-set automatically via PatchXpress scripts) so that closed and inactivated channel inhibition could be assessed. Protocol 1 was run at a frequency of 0.1 Hz until current amplitude is steady (automatically determined by PatchXpress scripts). The effect of test reagent on Nav current amplitude was monitored using custom PatchXpress stability scripts which determines the timing of compound addition and washout.
Data were processed and analyzed using DataXpress 2.0 (Molecular Devices). […]

Some results are limits rather than exact numbers.

T1 sequence (Q9Y5Y9 whole entry): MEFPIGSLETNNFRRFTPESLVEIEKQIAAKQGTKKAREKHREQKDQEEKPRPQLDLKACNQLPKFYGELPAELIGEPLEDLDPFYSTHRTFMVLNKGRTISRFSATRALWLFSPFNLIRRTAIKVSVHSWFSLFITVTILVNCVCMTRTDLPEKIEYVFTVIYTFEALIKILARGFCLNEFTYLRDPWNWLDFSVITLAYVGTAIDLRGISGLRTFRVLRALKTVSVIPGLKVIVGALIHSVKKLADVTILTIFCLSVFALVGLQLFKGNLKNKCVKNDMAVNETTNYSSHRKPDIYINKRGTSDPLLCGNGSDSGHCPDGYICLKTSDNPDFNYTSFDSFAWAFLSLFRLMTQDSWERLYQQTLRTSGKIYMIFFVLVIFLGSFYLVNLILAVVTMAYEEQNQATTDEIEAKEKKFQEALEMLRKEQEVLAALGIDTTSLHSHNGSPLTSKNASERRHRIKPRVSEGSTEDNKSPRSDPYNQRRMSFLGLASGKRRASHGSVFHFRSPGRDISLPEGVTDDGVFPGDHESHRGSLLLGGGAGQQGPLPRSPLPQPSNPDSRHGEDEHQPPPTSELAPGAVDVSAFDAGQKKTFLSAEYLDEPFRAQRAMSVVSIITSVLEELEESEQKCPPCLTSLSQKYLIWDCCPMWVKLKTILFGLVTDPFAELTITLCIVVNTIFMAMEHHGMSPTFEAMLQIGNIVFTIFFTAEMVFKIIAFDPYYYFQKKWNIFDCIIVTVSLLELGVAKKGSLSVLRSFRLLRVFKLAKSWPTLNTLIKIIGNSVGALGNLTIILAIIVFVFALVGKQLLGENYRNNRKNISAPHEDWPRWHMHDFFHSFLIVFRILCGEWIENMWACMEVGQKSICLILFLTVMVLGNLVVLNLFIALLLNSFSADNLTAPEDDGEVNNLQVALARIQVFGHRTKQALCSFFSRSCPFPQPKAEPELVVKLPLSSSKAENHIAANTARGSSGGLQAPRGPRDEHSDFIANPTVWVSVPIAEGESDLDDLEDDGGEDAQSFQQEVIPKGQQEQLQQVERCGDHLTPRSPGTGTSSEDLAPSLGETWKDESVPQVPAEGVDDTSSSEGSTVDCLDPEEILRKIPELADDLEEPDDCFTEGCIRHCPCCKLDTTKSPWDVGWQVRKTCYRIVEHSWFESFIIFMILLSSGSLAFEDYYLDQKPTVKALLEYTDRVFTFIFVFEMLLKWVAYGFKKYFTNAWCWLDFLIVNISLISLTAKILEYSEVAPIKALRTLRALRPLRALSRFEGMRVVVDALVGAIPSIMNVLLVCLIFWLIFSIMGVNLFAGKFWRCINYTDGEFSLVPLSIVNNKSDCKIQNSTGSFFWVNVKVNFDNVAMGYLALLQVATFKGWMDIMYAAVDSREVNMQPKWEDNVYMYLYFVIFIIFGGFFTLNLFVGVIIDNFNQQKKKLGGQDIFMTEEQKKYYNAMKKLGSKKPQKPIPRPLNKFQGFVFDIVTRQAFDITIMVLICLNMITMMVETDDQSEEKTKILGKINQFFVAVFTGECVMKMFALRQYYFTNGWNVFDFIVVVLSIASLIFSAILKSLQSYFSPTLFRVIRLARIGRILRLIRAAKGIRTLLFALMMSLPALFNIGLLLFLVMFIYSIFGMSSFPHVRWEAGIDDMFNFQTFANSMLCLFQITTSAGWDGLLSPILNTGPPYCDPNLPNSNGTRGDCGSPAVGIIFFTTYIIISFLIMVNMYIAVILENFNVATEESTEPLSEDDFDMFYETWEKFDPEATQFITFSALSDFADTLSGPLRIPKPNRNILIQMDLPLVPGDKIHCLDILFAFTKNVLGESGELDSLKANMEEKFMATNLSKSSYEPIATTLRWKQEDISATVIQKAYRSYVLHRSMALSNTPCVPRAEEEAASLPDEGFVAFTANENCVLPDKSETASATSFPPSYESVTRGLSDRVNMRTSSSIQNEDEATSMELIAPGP
T1 sequence (Q07699 19-218 partner): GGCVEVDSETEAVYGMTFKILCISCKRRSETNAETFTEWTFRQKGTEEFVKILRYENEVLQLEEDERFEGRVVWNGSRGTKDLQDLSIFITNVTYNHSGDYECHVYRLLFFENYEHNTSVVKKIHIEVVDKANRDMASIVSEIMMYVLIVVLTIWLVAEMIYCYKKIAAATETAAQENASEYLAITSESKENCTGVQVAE

As to “6-[4-(difluoromethoxy)phenyl]-N-[(2-morpholinophenyl)methyl]pyridazine-4-carboxamide [Example 56]”, the half-maximal inhibitory concentration (IC50) (in general, the point on the concentration scale where inhibition reaches its midpoint) was less than 500 nM.

As to `O=C(NCc1cccnc1N1CCOCC1)c1cnnc(-c2ccc(OCC3CC3)c(Cl)c2)c1` [Example 1, 6-(3-chloro-4-(cyclopropylmethoxy)phenyl)-N-((2-morpholinopyridin-3-yl)methyl)pyridazine-4-carboxamide], the IC50 is less than 500 nM.

On to `O=C(NCc1cccnc1N1CCOCC1)c1cnnc(-c2ccc(Cl)nc2)c1` [Example 2, 6-(6-chloro-3-pyridyl)-N-[(2-morpholino-3-pyridyl)methyl]pyridazine-4-carboxamide], for which the half-inhibitory concentration (IC50) is more than 1000 nM.

Take `O=C(NCc1cccnc1N1CCOCC1)c1cnnc(-c2cccc(Cl)c2)c1` [Example 3, 6-(3-chlorophenyl)-N-[(2-morpholino-3-pyridyl)methyl]pyridazine-4-carboxamide]: the IC50 was 500 to 1000 nM.

On to `Cc1cc(Cl)ccc1-c1cc(C(=O)NCc2cccnc2N2CCOCC2)cnn1` [Example 4, 6-(4-chloro-2-methyl-phenyl)-N-[(2-morpholino-3-pyridyl)methyl]pyridazine-4-carboxamide], for which the IC50 was less than 500 nM.

As for `CC(C)COc1ccc(-c2cc(C(=O)NCc3cccnc3N3CCOCC3)cnn2)cc1` [Example 5, 6-(4-isobutoxyphenyl)-N-[(2-morpholino-3-pyridyl)methyl]pyridazine-4-carboxamide], the IC50 was less than 500 nM.

For the compound `O=C(NCc1cccnc1N1CCOCC1)c1cnnc(-c2ccc(OC(F)(F)F)cc2)c1` [Example 6, N-[(2-morpholino-3-pyridyl)methyl]-6-[4-(trifluoromethoxy)phenyl]pyridazine-4-carboxamide], the concentration for half-maximal inhibition (IC50) was less than 500 nM.

Turning to `O=C(NCc1cccnc1N1CCOCC1)c1cnnc(-c2ccc(OCC(F)(F)F)cc2)c1` [Example 7, N-[(2-morpholino-3-pyridyl)methyl]-6-[4-(2,2,2-trifluoroethoxy)phenyl]pyridazine-4-carboxamide], the half-maximal inhibitory concentration (IC50) is less than 500 nM.

In the case of `O=C(NCc1cccnc1N1CCOCC1)c1cnnc(-c2ccc(OCC3CC3)cc2)c1` [Example 8, 6-[4-(cyclopropylmethoxy)phenyl]-N-[(2-morpholino-3-pyridyl)methyl]pyridazine-4-carboxamide], the IC50 was less than 500 nM.

`CCOc1ccc(-c2cc(C(=O)NCc3cccnc3N3CCOCC3)cnn2)cc1Cl` [Example 9, 6-(3-chloro-4-ethoxy-phenyl)-N-[(2-morpholino-3-pyridyl)methyl]pyridazine-4-carboxamide]: the IC50 is less than 500 nM.

On to `CCCOc1ccc(-c2cc(C(=O)NCc3cccnc3N3CCOCC3)cnn2)cc1Cl` [Example 10, 6-(3-chloro-4-propoxy-phenyl)-N-[(2-morpholino-3-pyridyl)methyl]pyridazine-4-carboxamide], for which the concentration for half-maximal inhibition (IC50) is less than 500 nM.

As to `CC(C)Oc1ccc(-c2cc(C(=O)NCc3cccnc3N3CCOCC3)cnn2)cc1Cl` [Example 11, 6-(3-chloro-4-isopropoxy-phenyl)-N-[(2-morpholino-3-pyridyl)methyl]pyridazine-4-carboxamide], the IC50 was less than 500 nM.

For the compound `CCOc1ccc(-c2cc(C(=O)NCc3cccnc3N3CCOCC3)cnn2)cc1F` [Example 12, 6-(4-ethoxy-3-fluoro-phenyl)-N-[(2-morpholino-3-pyridyl)methyl]pyridazine-4-carboxamide], the IC50 is less than 500 nM.

In the case of `CCCOc1ccc(-c2cc(C(=O)NCc3cccnc3N3CCOCC3)cnn2)cc1F` [Example 13, 6-(3-fluoro-4-propoxy-phenyl)-N-[(2-morpholino-3-pyridyl)methyl]pyridazine-4-carboxamide], the IC50 is less than 500 nM.

Take `CC(C)Oc1ccc(-c2cc(C(=O)NCc3cccnc3N3CCOCC3)cnn2)cc1F` [Example 14, 6-(3-fluoro-4-isopropoxy-phenyl)-N-[(2-morpholino-3-pyridyl)methyl]pyridazine-4-carboxamide]: the IC50 is less than 500 nM.

As to `O=C(NCc1cccnc1N1CCOCC1)c1cnnc(-c2ccc(OC3CC3)cc2)c1` [Example 15, 6-[4-(cyclopropoxy)phenyl]-N-[(2-morpholino-3-pyridyl)methyl]pyridazine-4-carboxamide], the IC50 is less than 500 nM.

As for `O=C(NCc1cccnc1N1CCOCC1)c1cnnc(-c2ccc(OCC3CC3)nc2)c1` [Example 16, 6-[6-(cyclopropylmethoxy)-3-pyridyl]-N-[(2-morpholino-3-pyridyl)methyl]pyridazine-4-carboxamide], the concentration for half-maximal inhibition (IC50) was less than 500 nM.

Turning to `O=C(NCc1cccnc1N1CCOCC1)c1cnnc(-c2ccc(Cl)cc2)c1` [Example 17, 6-(4-chlorophenyl)-N-[(2-morpholino-3-pyridyl)methyl]pyridazine-4-carboxamide], the IC50 is more than 1000 nM.

Consider `O=C(NCc1cccnc1N1CC2(COC2)C1)c1cnnc(-c2ccc(OCC3CC3)c(Cl)c2)c1` [Example 19, 6-[3-chloro-4-(cyclopropylmethoxy)phenyl]-N-[[2-(2-oxa-6-azaspiro[3.3]heptan-6-yl)-3-pyridyl]methyl]pyridazine-4-carboxamide], for which the half-inhibitory concentration (IC50) is less than 500 nM.

Turning to `O=C(NCc1cccnc1OCC(F)(F)F)c1cnnc(-c2ccc(OCC3CC3)c(Cl)c2)c1` [Example 20, 6-[3-chloro-4-(cyclopropylmethoxy)phenyl]-N-[[2-(2,2,2-trifluoroethoxy)-3-pyridyl]methyl]pyridazine-4-carboxamide], the concentration for half-maximal inhibition (IC50) was less than 500 nM.

With `O=C(NCc1cccnc1N1CCCOCC1)c1cnnc(-c2ccc(OCC3CC3)c(Cl)c2)c1` [Example 21, 6-[3-chloro-4-(cyclopropylmethoxy)phenyl]-N-[[2-(1,4-oxazepan-4-yl)-3-pyridyl]methyl]pyridazine-4-carboxamide], the IC50 was less than 500 nM.

Consider `CC1CN(c2ncccc2CNC(=O)c2cnnc(-c3ccc(OCC4CC4)c(Cl)c3)c2)CCO1` (centres unmarked) [Example 22, 6-[3-chloro-4-(cyclopropylmethoxy)phenyl]-N-[[2-(2-methylmorpholin-4-yl)-3-pyridyl]methyl]pyridazine-4-carboxamide], for which the IC50 was less than 500 nM.

With `CC1COCCN1c1ncccc1CNC(=O)c1cnnc(-c2ccc(OCC3CC3)c(Cl)c2)c1` (centres unmarked) [Example 23, 6-[3-chloro-4-(cyclopropylmethoxy)phenyl]-N-[[2-(3-methylmorpholin-4-yl)-3-pyridyl]methyl]pyridazine-4-carboxamide], the IC50 is less than 500 nM.

In the case of `Cc1ccc(CNC(=O)c2cnnc(-c3ccc(OCC4CC4)c(Cl)c3)c2)c(N2CCOCC2)n1` [Example 24, 6-[3-chloro-4-(cyclopropylmethoxy)phenyl]-N-[(6-methyl-2-morpholino-3-pyridyl)methyl]pyridazine-4-carboxamide], the half-inhibitory concentration (IC50) was less than 500 nM.

In the case of `Cc1ccnc(N2CCOCC2)c1CNC(=O)c1cnnc(-c2ccc(OCC3CC3)c(Cl)c2)c1` [Example 25, 6-[3-chloro-4-(cyclopropylmethoxy)phenyl]-N-[(4-methyl-2-morpholino-3-pyridyl)methyl]pyridazine-4-carboxamide], the IC50 is less than 500 nM.

For the compound `Cc1cnc(N2CCOCC2)c(CNC(=O)c2cnnc(-c3ccc(OCC4CC4)c(Cl)c3)c2)c1` [Example 26, 6-[3-chloro-4-(cyclopropylmethoxy)phenyl]-N-[(5-methyl-2-morpholino-3-pyridyl)methyl]pyridazine-4-carboxamide], the IC50 is more than 1000 nM.
